Measured values reported in PubChem BioAssay AID328 (DTP/NCI, 2004).
Several values for one entry are separate records, joined by “and”; a condition that tells them apart may be missing. Identical values can stand only once. Toxic doses and inconclusive results are not listed. Residues, ends and D or L forms follow the SMILES beside them. *: point of attachment. Cbz = O=C(OCc1ccccc1)*; OBn = c1ccc(CO*)cc1; Bn = c1ccc(C*)cc1

Test system: BDF1 mice, P388 leukemia ip, median survival T/C
Experiment: NCI In Vivo Anticancer Drug Screen. Data for tumor model P388 Leukemia (intraperitoneal) in B6D2F1 (BDF1) mice
Settings: endpoint: median survival time, higher = longer survival
Procedure, shortened: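 Reported as T/C, where T is the survival measurement in dosed animals and C the same measurement in vehicle controls.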

[1] = dose: 100.0 mg/kg/injection, schedule: Q01DX009 (ip), vehicle: saline
[2] = dose: 200.0 mg/kg/injection, schedule: Q01DX009 (ip), vehicle: saline
[3] = dose: 100.0 mg/kg/injection, schedule: Q04DX003 (ip), vehicle: saline with Tween-80
[4] = dose: 200.0 mg/kg/injection, schedule: Q04DX003 (ip), vehicle: saline with Tween-80
[5] = dose: 400.0 mg/kg/injection, schedule: Q04DX003 (ip), vehicle: saline with Tween-80
[6] = dose: 50.0 mg/kg/injection, schedule: Q01DX009 (ip), vehicle: Klucel (hydroxypropylcellulose) (HPC)
[7] = dose: 100.0 mg/kg/injection, schedule: Q01DX009 (ip), vehicle: Klucel (hydroxypropylcellulose) (HPC)
[8] = dose: 50.0 mg/kg/injection, schedule: Q04DX003 (ip), vehicle: Klucel (hydroxypropylcellulose) (HPC)
[9] = dose: 100.0 mg/kg/injection, schedule: Q04DX003 (ip), vehicle: Klucel (hydroxypropylcellulose) (HPC)
[10] = dose: 200.0 mg/kg/injection, schedule: Q04DX003 (ip), vehicle: Klucel (hydroxypropylcellulose) (HPC)
[11] = dose: 100.0 mg/kg/injection, schedule: Q01DX009 (ip), vehicle: saline with Tween-80
[12] = dose: 200.0 mg/kg/injection, schedule: Q01DX009 (ip), vehicle: saline with Tween-80
[13] = dose: 400.0 mg/kg/injection, schedule: Q01DX009 (ip), vehicle: saline with Tween-80
[14] = dose: 25.0 mg/kg/injection, schedule: Q01DX009 (ip), vehicle: Klucel (hydroxypropylcellulose) (HPC)
[15] = dose: 25.0 mg/kg/injection, schedule: Q04DX003 (ip), vehicle: Klucel (hydroxypropylcellulose) (HPC)
[16] = dose: 400.0 mg/kg/injection, schedule: Q04DX003 (ip), vehicle: Klucel (hydroxypropylcellulose) (HPC)

## CCC(=O)O[C@H]1CC[C@H]2[C@@H]3[C@H](C)CC4=CC(=O)CC[C@]4(C)[C@H]3CC[C@]12C
[1]
  T/C: 95 % of control
[2]
  T/C: 100 % of control
dose: 400.0 mg/kg/injection, schedule: Q01DX009 (ip), vehicle: saline
  T/C: 115 % of control

## c1ccc(CCSc2ncnc3nc[nH]c23)cc1
dose: 62.5 mg/kg/injection, schedule: Q01DX010 (ip), vehicle: saline
  T/C: 95 % of control and 104 % of control
dose: 125.0 mg/kg/injection, schedule: Q01DX010 (ip), vehicle: saline
  T/C: 95 % of control and 100 % of control
dose: 250.0 mg/kg/injection, schedule: Q01DX010 (ip), vehicle: saline
  T/C: 100 % of control
dose: 500.0 mg/kg/injection, schedule: Q01DX010 (ip), vehicle: saline
  T/C: 86 % of control and 109 % of control

## CCOC(=O)C(C)(C)CN(CC(C)(C)C(=O)OCC)c1ccccc1
[3]
  T/C: 115 % of control
[4]
  T/C: 115 % of control
[5]
  T/C: 120 % of control

## O=C(NC(=O)C(F)(F)C(F)(F)F)Nc1cccc(F)c1
[6]
  T/C: 116 % of control
[7]
  T/C: 122 % of control

## CC1(C)N=C(N)N=C(N)N1c1ccc(Cl)c(Cl)c1
dose: 7.2 mg/kg/injection, schedule: Q01DX009 (ip), vehicle: Klucel (hydroxypropylcellulose) (HPC)
  T/C: 122 % of control
dose: 16.0 mg/kg/injection, schedule: Q01DX009 (ip), vehicle: Klucel (hydroxypropylcellulose) (HPC)
  T/C: 181 % of control
dose: 20.0 mg/kg/injection, schedule: Q04DX003 (ip), vehicle: Klucel (hydroxypropylcellulose) (HPC)
  T/C: 120 % of control
dose: 22.5 mg/kg/injection, schedule: Q01DX009 (ip), vehicle: Klucel (hydroxypropylcellulose) (HPC)
  T/C: 172 % of control
dose: 26.0 mg/kg/injection, schedule: Q04DX003 (ip), vehicle: Klucel (hydroxypropylcellulose) (HPC)
  T/C: 154 % of control
dose: 30.0 mg/kg/injection, schedule: Q01DX009 (ip), vehicle: Klucel (hydroxypropylcellulose) (HPC)
  T/C: 95 % of control
dose: 40.0 mg/kg/injection, schedule: Q04DX003 (ip), vehicle: Klucel (hydroxypropylcellulose) (HPC)
  T/C: 231 % of control and 158 % of control

## Sc1ccc2ccccc2c1
[8]
  T/C: 104 % of control
dose: 100.0 mg/kg/injection, schedule: Q01DX001 (ip), vehicle: Klucel (hydroxypropylcellulose) (HPC)
  T/C: 104 % of control
[9]
  T/C: 109 % of control
dose: 200.0 mg/kg/injection, schedule: Q01DX001 (ip), vehicle: Klucel (hydroxypropylcellulose) (HPC)
  T/C: 95 % of control
[10]
  T/C: 109 % of control
dose: 400.0 mg/kg/injection, schedule: Q01DX001 (ip), vehicle: Klucel (hydroxypropylcellulose) (HPC)
  T/C: 100 % of control

## CCCCSCc1nc2nc(Cl)c(Cl)nc2[nH]1
dose: 50.0 mg/kg/injection, schedule: Q01DX009 (ip), vehicle: saline with Tween-80
  T/C: 110 % of control
[11]
  T/C: 108 % of control
[3]
  T/C: 109 % of control
[12]
  T/C: 91 % of control
[4]
  T/C: 95 % of control
[13]
  T/C: 94 % of control
[5]
  T/C: 95 % of control

## COc1ccc(C(SCC(N)C(=O)O)(c2ccccc2)c2ccccc2)cc1 (stereo unspecified)
dose: 1.3 mg/kg/injection, schedule: Q01DX009 (ip), vehicle: Klucel (hydroxypropylcellulose) (HPC)
  T/C: 117 % of control
dose: 2.0 mg/kg/injection, schedule: Q01DX009 (ip), vehicle: Klucel (hydroxypropylcellulose) (HPC)
  T/C: 113 % of control
dose: 4.12 mg/kg/injection, schedule: Q01DX009 (ip), vehicle: Klucel (hydroxypropylcellulose) (HPC)
  T/C: 155 % of control
dose: 6.25 mg/kg/injection, schedule: Q01DX009 (ip), vehicle: Klucel (hydroxypropylcellulose) (HPC)
  T/C: 160 % of control and 168 % of control and 175 % of control
dose: 12.5 mg/kg/injection, schedule: Q01DX009 (ip), vehicle: Klucel (hydroxypropylcellulose) (HPC)
  T/C: 200 % of control
[14]
  T/C: 250 % of control
[15]
  T/C: 155 % of control
dose: 33.0 mg/kg/injection, schedule: Q04DX003 (ip), vehicle: Klucel (hydroxypropylcellulose) (HPC)
  T/C: 154 % of control
[6]
  T/C: 105 % of control
[8]
  T/C: 170 % of control and 185 % of control
dose: 66.0 mg/kg/injection, schedule: Q04DX003 (ip), vehicle: Klucel (hydroxypropylcellulose) (HPC)
  T/C: 272 % of control
[9]
  T/C: 240 % of control and 205 % of control

## O=[N+]([O-])c1ccc(N=Cc2ccccc2)cc1
[9]
  T/C: 100 % of control
[10]
  T/C: 108 % of control
[16]
  T/C: 108 % of control

## CC(=O)N1CCc2nc3ccccc3cc21
dose: 24.75 mg/kg/injection, schedule: Q01DX009 (ip), vehicle: Klucel (hydroxypropylcellulose) (HPC)
  T/C: 123 % of control
[14]
  T/C: 105 % of control
dose: 37.5 mg/kg/injection, schedule: Q01DX009 (ip), vehicle: Klucel (hydroxypropylcellulose) (HPC)
  T/C: 104 % of control and 105 % of control
dose: 56.25 mg/kg/injection, schedule: Q01DX009 (ip), vehicle: Klucel (hydroxypropylcellulose) (HPC)
  T/C: 104 % of control and 110 % of control

## Cc1nc2nc(N)nc(N)c2nc1Sc1ccc(Cl)cc1
[3]
  T/C: 91 % of control
[5]
  T/C: 88 % of control

## CN(C)c1ccc(/C=C/c2nc3ccccc3o2)cc1
[9]
  T/C: 90 % of control
[10]
  T/C: 90 % of control
[16]
  T/C: 100 % of control

## CCCCNC(C)(C)COC(=O)/C=C/c1ccc(OCCCC)cc1
dose: 6.25 mg/kg/injection, schedule: Q01DX010 (ip), vehicle: saline
  T/C: 100 % of control
dose: 12.5 mg/kg/injection, schedule: Q01DX010 (ip), vehicle: saline
  T/C: 100 % of control
dose: 25.0 mg/kg/injection, schedule: Q01DX010 (ip), vehicle: saline
  T/C: 113 % of control
dose: 50.0 mg/kg/injection, schedule: Q01DX010 (ip), vehicle: saline
  T/C: 100 % of control

## O=C(Cn1ccc(=O)[nH]c1=O)c1ccc(Cl)s1
[11]
  T/C: 101 % of control and 112 % of control
[12]
  T/C: 102 % of control and 105 % of control
[13]
  T/C: 101 % of control and 115 % of control

## O=C(O)C(OP(=O)(O)O)C(=O)O
dose: 25.0 mg/kg/injection, schedule: Q01DX009 (ip), vehicle: saline
  T/C: 110 % of control
dose: 50.0 mg/kg/injection, schedule: Q01DX009 (ip), vehicle: saline
  T/C: 95 % of control
[1]
  T/C: 94 % of control
[2]
  T/C: 100 % of control

## COc1cccc2c1C(=O)c1c(O)c3c(c(O)c1C2=O)C[C@@](O)(C(=O)COC(=O)Cc1ccccc1)C[C@@H]3OC1CC(N)C(O)C(C)O1 (stereo partly specified)
dose: 1.3 mg/kg/injection, schedule: Q01DX009 (ip), vehicle: saline
  T/C: 162 % of control
dose: 2.0 mg/kg/injection, schedule: Q01DX009 (ip), vehicle: saline
  T/C: 200 % of control

## COC1C(O)=C2C(=O)OC(C)(O)/C=C/C=C\C=C/C=C/C(c3ccccc3)NC(=O)/C=C/C=C/C=C/C=C/C2(C)C1O (stereo unspecified)
dose: 0.78 mg/kg/injection, schedule: Q01DX009 (ip), vehicle: Klucel (hydroxypropylcellulose) (HPC)
  T/C: 88 % of control
dose: 1.56 mg/kg/injection, schedule: Q01DX009 (ip), vehicle: Klucel (hydroxypropylcellulose) (HPC)
  T/C: 107 % of control
dose: 3.12 mg/kg/injection, schedule: Q01DX009 (ip), vehicle: Klucel (hydroxypropylcellulose) (HPC)
  T/C: 107 % of control

## CC1(C)C=C(C(Br)c2ccc(Cl)cc2)C(=O)c2ccccc21 (stereo unspecified)
[6]
  T/C: 100 % of control
[8]
  T/C: 100 % of control
[7]
  T/C: 100 % of control and 105 % of control
[1]
  T/C: 160 % of control
[9]
  T/C: 90 % of control
[10]
  T/C: 100 % of control
dose: 400.0 mg/kg/injection, schedule: Q01DX009 (ip), vehicle: Klucel (hydroxypropylcellulose) (HPC)
  T/C: 95 % of control

## CC(C)CC(NC(=O)C(CSCc1ccccc1)NC(=O)OCc1ccccc1)C(=O)OCc1ccccc1 (stereo unspecified) (Cbz-Cys(Bn)-Leu-OBn; configuration not given here)
dose: 100.0 mg/kg/injection, schedule: Q04DX003 (ip), vehicle: gum acacia
  T/C: 104 % of control
dose: 200.0 mg/kg/injection, schedule: Q04DX003 (ip), vehicle: gum acacia
  T/C: 100 % of control
dose: 400.0 mg/kg/injection, schedule: Q04DX003 (ip), vehicle: gum acacia
  T/C: 100 % of control

## Oc1ccc2ccccc2c1C1=NNc2n[nH]c(=S)n2N1
dose: 12.5 mg/kg/injection, schedule: Q04DX003 (ip), vehicle: Klucel (hydroxypropylcellulose) (HPC)
  T/C: 104 % of control
[15]
  T/C: 108 % of control
[8]
  T/C: 104 % of control

## Cn1c2ccccc2c2c3c(ccc21)C(=O)C=CC3=O
[3]
  T/C: 113 % of control
[4]
  T/C: 102 % of control
[5]
  T/C: 121 % of control

## O=[N+]([O-])c1ccc(S(=O)(=O)Nc2ccc(-c3ccccc3)cc2)cc1
dose: 100.0 mg/kg/injection, schedule: Q04DX003 (ip), vehicle: other
  T/C: 96 % of control
dose: 200.0 mg/kg/injection, schedule: Q04DX003 (ip), vehicle: other
  T/C: 104 % of control
dose: 400.0 mg/kg/injection, schedule: Q04DX003 (ip), vehicle: other
  T/C: 100 % of control
